Measurements from patent US4680397A, “Apovincaminol derivative” (Richter Gedeon Vegyeszeti Gyar Rt., priority 1984, dated 1987).
Structures can show the parent of a compound that is named as a salt.

Assays:
Format in all cases: biochemical
[1] = target: phosphodiesterase isolated from cattle brain; assay: phosphodiesterase inhibition, enzyme isolated from cattle brain; settings: inhibitor concentration giving 50% decrease of enzyme activity, 20 minutes incubation, read-out: 150(μmoles) cattle brain
Procedure: (§1) The model experiments were performed by means of phosphodiesterase isolated from animal tissues (rat brain, cattle brain, cattle heart). […] From the test compounds a 1 mmole stock solution was prepared with aqueous hydrochloric acid solution and different amounts of the stock solution were added to the enzyme preparates corresponding to 5×10^-6, 1×10^-5 and 5×10^-5 mole/lit. of the test compound. A solution of papaverine used as reference compound is added to the enzyme preparate in an analogous manner.
(§2) The activity of the solutions of the test compound and papaverine was expressed in percents of the control (enzyme solution without any inhibitory substance, 100%).
(§3) The tests on an enzyme isolated from cattle brain and cattle heart, respectively were carried out in an analogous way.

[2] = target: phosphodiesterase isolated from cattle heart; assay: phosphodiesterase inhibition, enzyme isolated from cattle heart; settings: inhibitor concentration giving 50% decrease of enzyme activity, 20 minutes incubation, read-out: 150(μmoles) cattle heart
Procedure: as §1, §2, §3

[3] = target: phosphodiesterase isolated from rat brain; assay: phosphodiesterase inhibition, enzyme isolated from rat brain; settings: inhibitor concentration giving 50% decrease of enzyme activity, 20 minutes incubation, read-out: 150(μmoles) rat brain
Procedure: as §1, §2, §3

Structure (SMILES)	IC50 [1]	IC50 [2]	IC50 [3]
CCC12C=CCN3CCc4c(n(c5cccc([N+](=O)[O-])c45)C(COC(=O)c4cc(OC)c(OC)c(OC)c4)=C1)C32 (centres unmarked) [compound 888, 9-Nitro-17,18-dehydroapovincaminol 3',4',5'-trimethoxybenzoate]	10 µM	5 µM	30 µM
CCC12C=C(COC(=O)c3cc(OC)c(OC)c(OC)c3)n3c4c(c5ccccc53)CCN(CC(O)C1)C42 (stereo not drawn) [compound 1079, 18β-Hydroxy-apovincaminol 3',4',5'-trimethoxybenzoate]	5 µM	2 µM	5 µM
COc1ccc(Cc2nccc3cc(OC)c(OC)cc23)cc1OC [papaverin hydrochloride, reference compound]	100 µM	50 µM	120 µM
CCC12C=CCN3CCc4c(n(c5cc([N+](=O)[O-])ccc45)C(COC(C)=O)=C1)C32 (centres unmarked) [compound 887, 11-nitro-17,18-dehydro-apovincaminol acetate]	–	–	30 µM
CCC12C=CCN3CCc4c(n(c5cccc([N+](=O)[O-])c45)C(COC(C)=O)=C1)C32 (centres unmarked) [compound 886, 9-Nitro-17,18-dehydroapovincaminol acetate]	–	–	50 µM
CCC12C=C(COC(C)=O)n3c4c(c5ccccc53)CCN(CC(O)C1)C42 (stereo not drawn) [compound 1041, 18β-Hydroxy-apovincaminol acetate]	100 µM	60 µM	120 µM
CCC12C=CCN3CCc4c(n(c5cc([N+](=O)[O-])ccc45)C(COC(=O)c4cc(OC)c(OC)c(OC)c4)=C1)C32 (centres unmarked) [compound 889, 11-nitro-17,18-dehydro-apovincaminol 3',4',5'-tri-methoxybenzoate]	5 µM	2 µM	10 µM
CCC12C=C(COC(C)=O)n3c4c(c5ccccc53)CCN(CC(OC(C)=O)C1)C42 (stereo not drawn) [compound 956, 18β-Acetoxy-apovincaminol acetate]	30 µM	25 µM	30 µM
